Values quoted from earlier work, collected in patent US20150190331A1, “NAIL LACQUER COMPOSITION WITH HYPOSENSITIVITY” (Pakaly Enterprise Co., Ltd., priority 2014, published 2015).

Test system: guinea pigs
Conditions: in guinea pigs; International Journal of Toxicology 24(Suppl 5): 53-100, 2005
In the case of C=C(C)C(=O)OCCCC [Butyl Methacrylate], the sensitizer strength is listed as “moderate sensitizers”. For C=C(C)C(=O)OC1CCCCC1 [Cyclohexyl Methacrylate], the sensitizer strength is given as “moderate sensitizers”. In the case of C=C(C)C(=O)OCCO [HEMA, hydroxyethylmethacrylate], the sensitizer strength is listed as “strong sensitizers”. For C=C(C)C(=O)OCCCCCC [Hexyl Methacrylate], the sensitizer strength is given as “moderate sensitizers”. For C=C(C)C(=O)OCCCO [Hydroxypropyl Methacrylate], the sensitizer strength is given as “weak sensitizer”. For C=C(C)C(=O)OCC(O)COc1ccc(C(C)(C)c2ccc(OCC(O)COC(=O)C(=C)C)cc2)cc1 (centres unmarked) [Isopropylidenediphenyl Bisglycidyl Methacrylate], the sensitizer strength is listed as “strong sensitizers”. For C=C(C)C(=O)OCCCCCCCCCCCC [Lauryl Methacrylate], the sensitizer strength is given as “strong sensitizers”. For C=C(C)C(=O)OCCOCCOCCOC(=O)C(=C)C [Triethylene Glycol Dimethacrylate], the sensitizer strength is given as “not sensitizers”. For C=C(C)C(=O)OCC(CC)(COC(=O)C(=C)C)COC(=O)C(=C)C [Trimethylolpropane Trimethacrylate], the sensitizer strength is listed as “strong sensitizers”. In the case of PEG-4 Dimethacrylate, the sensitizer strength is listed as “not sensitizers”. In the case of Urethane Methacrylate, the sensitizer strength is listed as “moderate sensitizers”.
